Assay results from ChEMBL document CHEMBL1255477, “In vitro properties of BAL30072, a novel siderophore sulfactam with activity against multiresistant gram-negative bacilli” (Antimicrob Agents Chemother, 2010).
Values after ≈ are worked out from the molar mass of the structure shown. Active and inactive are the calls of the source. No cut-off for these calls is given here.

Assays:
Klebsiella aerogenes = assay: Antimicrobial activity against Enterobacter aerogenes by broth dilution method; type: functional
Citrobacter freundii = assay: Antimicrobial activity against Citrobacter freundii by broth dilution method; type: functional
Providencia stuartii = assay: Antimicrobial activity against Providencia stuartii by broth dilution method; type: functional
Proteus vulgaris = assay: Antimicrobial activity against Proteus vulgaris by broth dilution method; type: functional
Providencia rettgeri = assay: Antimicrobial activity against Providencia rettgeri by broth dilution method; type: functional
Enterobacter cloacae = assay: Antimicrobial activity against Enterobacter cloacae by broth dilution method; type: functional
Escherichia coli = assay: Antimicrobial activity against Escherichia coli by broth dilution method; type: functional
Klebsiella oxytoca = assay: Antimicrobial activity against Klebsiella oxytoca by broth dilution method; type: functional
Klebsiella pneumoniae [1] = assay: Antimicrobial activity against Klebsiella pneumoniae by broth dilution method; type: functional
Proteus penneri = assay: Antimicrobial activity against Proteus penneri by broth dilution method; type: functional
Proteus mirabilis = assay: Antimicrobial activity against Proteus mirabilis by broth dilution method; type: functional
Serratia marcescens = assay: Antimicrobial activity against Serratia marcescens by broth dilution method; type: functional
Acinetobacter sp. = assay: Antimicrobial activity against Acinetobacter sp. by broth dilution method; type: functional
Burkholderia sp. = assay: Antimicrobial activity against Burkholderia sp. by broth dilution method; type: functional
[2] = test system: Stenotrophomonas maltophilia; assay: Antimicrobial activity against Stenotrophomonas maltophilia by broth dilution method; type: functional
Pseudomonas aeruginosa [3] = assay: Antimicrobial activity against Pseudomonas aeruginosa by broth dilution method; type: functional
Pseudomonas aeruginosa [4] = assay: Antimicrobial activity against Pseudomonas aeruginosa B4 by broth dilution method; type: functional
Pseudomonas aeruginosa [5] = assay: Antimicrobial activity against oprD protein deficient Pseudomonas aeruginosa C2 by broth dilution method; type: functional
Pseudomonas aeruginosa [6] = assay: Antimicrobial activity against mexAB-oprM protein and mexCD-oprJ deficient Pseudomonas aeruginosa PAO238 by broth dilution method; type: functional
Pseudomonas aeruginosa [7] = assay: Antimicrobial activity against mexAB-oprM protein and mexCD-oprJ deficient Pseudomonas aeruginosa PAO253 overexpressing MexEF-OprN gene by broth dilution method; type: functional
Pseudomonas aeruginosa [8] = assay: Antimicrobial activity against mexAB-oprM protein and mexZ deficient Pseudomonas aeruginosa PAO267 by broth dilution method; type: functional
Pseudomonas aeruginosa [9] = assay: Antimicrobial activity against mexAB-oprM, mexCD-oprJ, mexEF-oprN, mexJK, mexXY, opmH and pscC gene deficient Pseudomonas aeruginosa PAO750 by broth dilution method; type: functional
Pseudomonas aeruginosa [10] = assay: Antimicrobial activity against Pseudomonas aeruginosa BA(C2-107) selected after 25 ug/ml of compound exposure by broth dilution method; type: functional
Pseudomonas aeruginosa [11] = assay: Antimicrobial activity against Pseudomonas aeruginosa BA(C1-106) selected after 25 ug/ml of compound exposure by broth dilution method; type: functional
Pseudomonas aeruginosa [12] = assay: Antimicrobial activity against Pseudomonas aeruginosa BA by broth dilution method; type: functional; details: Pseudomonas aeruginosa, BA; read-out: MIC
Pseudomonas aeruginosa [13] = assay: microbe, parasite or virus in culture; details: PAO1
Description: Antimicrobial activity against Pseudomonas aeruginosa PAO1 by broth dilution method

Acinetobacter baumannii = assay: Antimicrobial activity against Acinetobacter baumannii HPA74510 assessed as number of passages required for MIC to rise above 4 times original MIC; type: functional
Acinetobacter junii = assay: Antimicrobial activity against Acinetobacter junii 15218 assessed as number of passages required for MIC to rise above 4 times original MIC; type: functional
Klebsiella pneumoniae [14] = assay: Antimicrobial activity against Klebsiella pneumoniae 1338665 assessed as number of passages required for MIC to rise above 4 times original MIC; type: functional
Pseudomonas aeruginosa [15] = assay: Antimicrobial activity against Pseudomonas aeruginosa BA assessed as number of passages required for MIC to rise above 4 times original MIC; type: functional
Pseudomonas aeruginosa [16] = assay: Antimicrobial activity against Pseudomonas aeruginosa 527 assessed as number of passages required for MIC to rise above 4 times original MIC; type: functional
[17] = test system: Stenotrophomonas maltophilia; assay: Antimicrobial activity against Stenotrophomonas maltophilia 1AC736 assessed as number of passages required for MIC to rise above 4 times original MIC; type: functional

CC(C)(O/N=C(\C(=O)N[C@@H]1C(=O)N2C(C(=O)[O-])=C(C[n+]3ccccc3)CS[C@H]12)c1csc(N)n1)C(=O)O [CEFTAZIDIME]
MIC50 (Klebsiella aerogenes): > 32 µg/mL
MIC90 (Klebsiella aerogenes): > 32 µg/mL
MIC (Citrobacter freundii): > 32 µg/mL
MIC50 (Citrobacter freundii): > 32 µg/mL
MIC90 (Citrobacter freundii): > 32 µg/mL
MIC50 (Providencia stuartii): 1 µg/mL (≈ 1.83 µM)
MIC90 (Providencia stuartii): > 32 µg/mL
MIC (Proteus vulgaris): ≤ 0.06 µg/mL
MIC50 (Proteus vulgaris): ≤ 0.06 µg/mL
MIC90 (Proteus vulgaris): 0.25 µg/mL (≈ 0.457 µM)
MIC50 (Providencia rettgeri): 1 µg/mL (≈ 1.83 µM)
MIC90 (Providencia rettgeri): > 32 µg/mL
MIC50 (Enterobacter cloacae): 16 µg/mL (≈ 29.3 µM)
MIC90 (Enterobacter cloacae): > 32 µg/mL
MIC50 (Escherichia coli): 32 µg/mL (≈ 58.5 µM)
MIC90 (Escherichia coli): > 32 µg/mL
MIC50 (Klebsiella oxytoca): 1 µg/mL (≈ 1.83 µM)
MIC90 (Klebsiella oxytoca): 8 µg/mL (≈ 14.6 µM)
MIC50 (Klebsiella pneumoniae [1]): > 32 µg/mL
MIC90 (Klebsiella pneumoniae [1]): > 32 µg/mL
MIC (Proteus penneri): ≤ 0.06 µg/mL
MIC50 (Proteus penneri): ≤ 0.06 µg/mL
MIC90 (Proteus penneri): 0.25 µg/mL (≈ 0.457 µM)
MIC (Proteus mirabilis): ≤ 0.06 µg/mL
MIC50 (Proteus mirabilis): ≤ 0.06 µg/mL
MIC90 (Proteus mirabilis): 0.25 µg/mL (≈ 0.457 µM)
MIC50 (Serratia marcescens): 1 µg/mL (≈ 1.83 µM)
MIC90 (Serratia marcescens): 2 µg/mL (≈ 3.66 µM)
MIC50 (Acinetobacter sp.): 32 µg/mL (≈ 58.5 µM)
MIC90 (Acinetobacter sp.): > 32 µg/mL
MIC50 (Burkholderia sp.): 2 µg/mL (≈ 3.66 µM)
MIC90 (Burkholderia sp.): 8 µg/mL (≈ 14.6 µM)
MIC50 [2]: 2 µg/mL (≈ 3.66 µM)
MIC90 [2]: 16 µg/mL (≈ 29.3 µM)
MIC50 (Pseudomonas aeruginosa [3]): 16 µg/mL (≈ 29.3 µM)
MIC90 (Pseudomonas aeruginosa [3]): > 32 µg/mL
MIC (Pseudomonas aeruginosa [4]): 4 µg/mL (≈ 7.32 µM)
MIC (Pseudomonas aeruginosa [5]): 2 µg/mL (≈ 3.66 µM)
MIC (Pseudomonas aeruginosa [6]): 0.5 µg/mL (≈ 0.915 µM)
MIC (Pseudomonas aeruginosa [7]): 0.25 µg/mL (≈ 0.457 µM)
MIC (Pseudomonas aeruginosa [8]): 0.5 µg/mL (≈ 0.915 µM)
MIC (Pseudomonas aeruginosa [9]): 0.5 µg/mL (≈ 0.915 µM)
MIC (Pseudomonas aeruginosa [10]): 2 µg/mL (≈ 3.66 µM)
MIC (Pseudomonas aeruginosa [11]): 16 µg/mL (≈ 29.3 µM)
MIC (Pseudomonas aeruginosa [12]): 2 µg/mL (≈ 3.66 µM)
MIC (Pseudomonas aeruginosa [13]): 1 µg/mL (≈ 1.83 µM)

O=C(O)c1cn(C2CC2)c2cc(N3CCNCC3)c(F)cc2c1=O [CIPROFLOXACIN]
MIC (Pseudomonas aeruginosa [6]): ≤ 0.06 µg/mL
MIC (Pseudomonas aeruginosa [7]): 1 µg/mL (≈ 3.02 µM)
MIC (Pseudomonas aeruginosa [8]): ≤ 0.06 µg/mL
MIC (Pseudomonas aeruginosa [9]): ≤ 0.06 µg/mL
Activity (Acinetobacter baumannii): inactive
Activity (Acinetobacter junii): 12 passages
Activity (Klebsiella pneumoniae [14]): inactive
Activity (Pseudomonas aeruginosa [15]): 2 passages
Activity (Pseudomonas aeruginosa [16]): 3 passages
Activity [17]: inactive
